In patent US12144872B1, “Modified nanodelivery system and method for enhanced in vivo medical and preclinical imaging” (Florida A&M University, priority 2012, dated 2024):

Test system: 4T1-luc tumor models
Assay: In vivo bioluminescence/fluorescence imaging and kinetics in luciferase-expressing tumor models
Details: mice, 150 mg/kg luciferin solution
Experimental: All the cell lines were modified for the luciferase reporter gene expression.
Trypsinization was stopped with medium containing 10% FBS. The cells were centrifuged, and the floating cells in the supernatant were discarded. The cell pellet was resuspended in medium containing 10% FBS and mixed thoroughly. Trypan blue staining was used to determine the number of viable cells. The resuspended cells were centrifuged, and cell dilutions of 2±10^6 cells/100 μl were prepared in growth medium. The 100 μl of cell suspension was injected subcutaneously into the right flank area of each mouse. The mice were randomized into control and treatment groups when xenografts were palpable with a tumor size of 50 mm^3.
The orthotopic tumor model was used to mimic the cancer in humans in athymic nu/nu mice (6-week old). […] Only cell suspensions of >90% viability, as determined by trypan blue exclusion, were used. […]
Nu/Nu mice were anesthetized and tumor cells (2 million per mouse) were injected via tail vein. Only cell suspensions of >90% viability, as determined by trypan blue exclusion, were used. […]
Imaging was performed with an IVIS Spectrum (16). Bioluminescent signals were quantified using Living Image® software (Caliper Life Sciences., Alameda, CA.).
Imaging was performed with an IVIS SpectrumCT (35). Bioluminescent signals were quantified using Living Image® software (Caliper Life Sciences., Alameda, CA.).

## O=C(O)[C@H]1CSC(c2nc3ccc(O)cc3s2)=N1 [Free luciferin, luciferin]
  time to clearance from circulation: ≤ 60 min
